We go through 35 molecules from ChEMBL document CHEMBL1137288, “Antiprotozoal activities of new bis-chlorophenyl derivatives of bicyclic octanes and aza-nonanes” (Bioorg Med Chem Lett, 2006).

Each structure is given as a SMILES string.

Test [1] concerns Plasmodium falciparum. In words: Antiprotozoal activity against chloroquine-, pyrimethamine-resistant Plasmodium falciparum K1. In kind it is functional, organism-based.
Test [2] can be described thus: Selectivity index, IC50 for L6 cells/IC50 for Plasmodium falciparum K1. The test is classed as functional.
The test system of test [3] is Trypanosoma brucei rhodesiense. The experiment in a line: Antiprotozoal activity against Trypanosoma brucei rhodesiense STIB900. The test is classed as functional, organism-based.
Test [4] has as its system L6. The experiment in a line: Cytotoxicity against L6 cells. The test is classed as cell-based. As to conditions: Rattus norvegicus.
Test [5] in a line: Selectivity index, IC50 for L6 cells/ IC50 for Trypanosoma brucei rhodesience. In kind it is functional.
Test [6] has as its system Trypanosoma brucei brucei. In words: Survival of NMRI mouse infected with Trypanosoma brucei brucei at 50 mg/kg, ip. In kind it is functional. The note with it: route intraperitoneal.
Test [7] deals with Trypanosoma brucei brucei. The experiment in a line: Survival of NMRI mouse infected with Trypanosoma brucei brucei at 0.5 mg/kg, ip. In kind it is functional. As to conditions: route intraperitoneal.

In the case of `COc1ccc(C2CC3(N(C)C)CC(=O)C2C(c2ccc(OC)cc2)C3)cc1` (centres undefined), the values for the half-inhibitory concentration (IC50) in test [1], in test [3] and in test [4] were 5430 nM, 5.01 µM and 52.4 µM, respectively. Also, the “Ratio IC50” value in test [2] turned out to be 9.66; in test [5] it was 10.47.

Turning to `Clc1ccc(C2CC3(N4CCCCC4)CCNC2C(c2ccc(Cl)cc2)C3)cc1` (centres undefined), the IC50 (usually the midpoint of a concentration-inhibition curve) amounted to 460 nM in test [1], 0.065 µM in test [3] and 8.1 µM in test [4]. Besides, the entries for the “Ratio IC50” value in test [2] and in test [5] were 17.61 and 124.6, respectively. The Mean survival days in test [6] came to 10.25 days.

For `COc1ccc(C2CC3(N4CCCCC4)CC(O)C2C(c2ccc(OC)cc2)C3)cc1` (centres undefined), the IC50 was 4980 nM in test [1], 14.2 µM in test [3] and 44.6 µM in test [4]. Moreover, the “Ratio IC50” value in test [2] is 8.95; in test [5], 3.13.

Consider `C[C@@H]1CC[C@H]2[C@@H](C)C(=O)O[C@@H]3O[C@@]4(C)CC[C@@H]1[C@]32OO4` [ARTEMISININ], for which the IC50 in test [1] was determined as 6.4 nM. In addition, in test [2], the “Ratio IC50” value is recorded as 70390.

In the case of `O/N=C1\CC2(N3CCCC3)CC(c3ccc(Cl)cc3)C1C(c1ccc(Cl)cc1)C2` (centres undefined), the IC50 in test [1] was determined as 510 nM; in test [3], 1.69 µM; in test [4], 12.7 µM. Also, the “Ratio IC50” value in test [2] was found to be 24.82; in test [5], 7.49.

Regarding `CN(C)C12CC(=O)NC(C(c3ccccc3)C1)C(c1ccccc1)C2` (centres undefined), the IC50 was 1400 nM in test [1], 38 µM in test [3] and more than 269 µM in test [4]. Further, the “Ratio IC50” value in test [2] is recorded as 192.2; in test [5], 7.09.

As to `COc1ccc(C2CC3(N4CCCC4)CC(=O)C2C(c2ccc(OC)cc2)C3)cc1` (centres undefined), the concentration for half-maximal inhibition (IC50) in test [1] was 3370 nM; in test [3], 3.7 µM; in test [4], 41.9 µM. Moreover, the “Ratio IC50” value in test [2] is given as 12.44; in test [5], 11.34.

`CN(C)C12CC(=O)C(C(c3ccccc3)C1)C(c1ccccc1)C2` (centres undefined): the figures for the IC50 in test [1], in test [3] and in test [4] were more than 10600 nM, 9.99 µM and 24.6 µM, respectively. Further, the “Ratio IC50” value in test [2] was found to be 2.32; in test [5] it was 2.46.

In the case of `c1ccc(C2CC3(N4CCCCC4)CCNC2C(c2ccccc2)C3)cc1` (centres undefined), the “Ratio IC50” value in test [2] was determined as 140.22; in test [5], 13.66.

As to `OC1CC2(N3CCCCC3)CC(c3ccccc3)C1C(c1ccccc1)C2` (centres undefined), the concentration for half-maximal inhibition (IC50) came to 840 nM in test [1], 5.34 µM in test [3] and 37.3 µM in test [4]. Moreover, the “Ratio IC50” value in test [2] is 44.45; in test [5], 6.99.

On to `CN(C)C12C/C(=N\O)C(C(c3ccccc3)C1)C(c1ccccc1)C2` (centres undefined), for which the IC50 in test [1] was determined as 1260 nM; in test [3], 7.67 µM; in test [4], 150 µM. Moreover, the “Ratio IC50” value in test [2] was 119.4; in test [5] it was 19.61.

As to `O=C1CC2(N3CCCC3)CC(c3ccccc3)C(N1)C(c1ccccc1)C2` (centres undefined), the concentration for half-maximal inhibition (IC50) in test [1] is 8760 nM; in test [3], 37.9 µM; in test [4], more than 250 µM. The “Ratio IC50” value in test [2] amounted to 28.43; in test [5], 6.58.

As to `CN(C)C12CC(O)C(C(c3ccccc3)C1)C(c1ccccc1)C2` (centres undefined), the values for the IC50 in test [1], in test [3] and in test [4] were more than 15600 nM, 2.95 µM and 132 µM, respectively. Moreover, the entries for the “Ratio IC50” value in test [2] and in test [5] were 8.52 and 44.91, respectively.

Take `OC1CC2(N3CCCC3)CC(c3ccc(Cl)cc3)C1C(c1ccc(Cl)cc1)C2` (centres undefined): the 50% inhibitory concentration (IC50) amounted to 530 nM in test [1], 0.37 µM in test [3] and 3.59 µM in test [4]. For the same molecule, the “Ratio IC50” value in test [2] was found to be 6.77; in test [5], 9.7.

Turning to `CN(C)C12C/C(=N\O)C(C(c3ccc(Cl)cc3)C1)C(c1ccc(Cl)cc1)C2` (centres undefined), the IC50 in test [1] turned out to be 1000 nM; in test [3], 1.5 µM; in test [4] it was 7.82 µM. Moreover, the “Ratio IC50” value turned out to be 7.82 in test [2] and 5.21 in test [5].

In the case of `O/N=C1/CC2(N3CCCC3)CC(c3ccc(Cl)cc3)C1C(c1ccc(Cl)cc1)C2` (centres undefined), the IC50 in test [1] stood at 190 nM; in test [3], 1.51 µM; in test [4], 5.81 µM. The results for the “Ratio IC50” value in test [2] and in test [5] were 27.26 and 3.85, respectively.

For the molecule `COc1ccc(C2CC3(N4CCCC4)CC(O)C2C(c2ccc(OC)cc2)C3)cc1` (centres undefined), the 50% inhibitory concentration (IC50) in test [1] stood at 2720 nM; in test [3] it was 7.61 µM; in test [4], 17.9 µM. For the same molecule, the “Ratio IC50” value in test [2] was determined as 6.58; in test [5] it was 2.35.

For the molecule `O=C1CC2(N3CCCCC3)CC(c3ccccc3)C1C(c1ccccc1)C2` (centres undefined), the IC50 was 3950 nM in test [1], 8.12 µM in test [3] and 46.9 µM in test [4]. Further, the “Ratio IC50” value in test [2] is on record as 11.88; in test [5] it was 5.78.

In the case of `OC1CC2(N3CCCC3)CC(c3ccccc3)C1C(c1ccccc1)C2` (centres undefined), the IC50 in test [1] was 2390 nM; in test [3], 4.26 µM; in test [4] it was 26.8 µM. The results for the “Ratio IC50” value in test [2] and in test [5] were 11.2 and 6.28, respectively.

For the molecule `O/N=C1\CC2(N3CCCCC3)CC(c3ccccc3)C1C(c1ccccc1)C2` (centres undefined), the values for the IC50 in test [1], in test [3] and in test [4] were 150 nM, 3.66 µM and 24.2 µM, respectively. The results for the “Ratio IC50” value in test [2] and in test [5] were 161.1 and 6.6, respectively.

Regarding `OC1CC2(N3CCCCC3)CC(c3ccc(Cl)cc3)C1C(c1ccc(Cl)cc1)C2` (centres undefined), the IC50 came out at 370 nM in test [1], 0.44 µM in test [3] and 11.6 µM in test [4]. Moreover, the “Ratio IC50” value in test [2] amounted to 31.32; in test [5], 26.34.

In the case of `c1ccc(C2CC3(N4CCCC4)CCNC2C(c2ccccc2)C3)cc1` (centres undefined), the “Ratio IC50” value in test [2] was 215; in test [5], 103.8.

Turning to `Clc1ccc(C2CC3(N4CCCC4)CCNC2C(c2ccc(Cl)cc2)C3)cc1` (centres undefined), the half-maximal inhibitory concentration (IC50) in test [1] was 250 nM; in test [3] it was 0.066 µM; in test [4] it was 10.1 µM. For the same molecule, the “Ratio IC50” value in test [2] is given as 40.24; in test [5] it was 152.4. This molecule also registered a Mean survival days in test [6] of 5.75 days.

With `O/N=C1\CC2(N3CCCCC3)CC(c3ccc(Cl)cc3)C1C(c1ccc(Cl)cc1)C2` (centres undefined), the IC50 in test [1] was 500 nM; in test [3], 3.34 µM; in test [4], 8.75 µM. Also, the “Ratio IC50” value in test [2] amounted to 17.5; in test [5], 2.62.

Turning to `CN(C)C12CC(O)C(C(c3ccc(Cl)cc3)C1)C(c1ccc(Cl)cc1)C2` (centres undefined), the IC50 turned out to be 980 nM in test [1], 0.32 µM in test [3] and 8.77 µM in test [4]. Besides, the “Ratio IC50” value in test [2] amounted to 8.95; in test [5], 27.41.

Turning to `Cc1ccc(C(=O)Nc2ccc(S(=O)(=O)O)c3cc(S(=O)(=O)O)cc(S(=O)(=O)O)c23)cc1NC(=O)c1cccc(NC(=O)Nc2cccc(C(=O)Nc3cc(C(=O)Nc4ccc(S(=O)(=O)O)c5cc(S(=O)(=O)O)cc(S(=O)(=O)O)c45)ccc3C)c2)c1` [SURAMIN], the IC50 worked out at 0.0075 µM in test [3] and 4720 µM in test [4]. In test [5], the “Ratio IC50” value was 629933.

In test [7], `Nc1nc(N)nc(Nc2ccc([As]3SCC(CO)S3)cc2)n1` (centres undefined) [MELARSOPROL] gave a Mean survival days of 42.5 days. For the same molecule, the “Ratio IC50” value in test [5] is reported as 1995.

Consider `CN(C)C12CCNC(C(c3ccccc3)C1)C(c1ccccc1)C2` (centres undefined), for which the “Ratio IC50” value in test [2] is given as 388.6; in test [5], 181.3.

For `O=C1CC2(N3CCCCC3)CC(c3ccccc3)C(N1)C(c1ccccc1)C2` (centres undefined), the concentration for half-maximal inhibition (IC50) is 13000 nM in test [1], 36.6 µM in test [3] and 234 µM in test [4]. Further, the “Ratio IC50” value amounted to 17.97 in test [2] and 6.38 in test [5].

`CN(C)C12CCNC(C(c3ccc(Cl)cc3)C1)C(c1ccc(Cl)cc1)C2` (centres undefined): the half-inhibitory concentration (IC50) in test [1] was 410 nM; in test [3], 0.061 µM; in test [4], 8.74 µM. Moreover, the entries for the “Ratio IC50” value in test [2] and in test [5] were 21.32 and 143.3, respectively. The same molecule came in with a Mean survival days in test [6] of 9 days.

As for `COc1ccc(C2CC3(N4CCCCC4)CC(=O)C2C(c2ccc(OC)cc2)C3)cc1` (centres undefined), the IC50 in test [1] was determined as 4360 nM; in test [3] it was 10 µM.

Take `OC(c1cc(C(F)(F)F)nc2c(C(F)(F)F)cccc12)C1CCCCN1` (centres undefined) [MEFLOQUINE]: the IC50 in test [4] turned out to be 11.4 µM.

For the molecule `COc1ccc(C2CC3(N(C)C)CC(O)C2C(c2ccc(OC)cc2)C3)cc1` (centres undefined), the results for the IC50 in test [1], in test [3] and in test [4] were 5500 nM, 2.15 µM and 63.4 µM, respectively. In addition, the “Ratio IC50” value was 11.53 in test [2] and 29.5 in test [5].

Turning to `O=C1CC2(N3CCCC3)CC(c3ccccc3)C1C(c1ccccc1)C2` (centres undefined), the IC50 in test [1] amounted to 1190 nM; in test [3] it was 8.03 µM; in test [4], 26.4 µM. Also, the “Ratio IC50” value in test [2] came to 22.22; in test [5], 3.29.

As to `O/N=C1\CC2(N3CCCC3)CC(c3ccccc3)C1C(c1ccccc1)C2` (centres undefined), the figures for the IC50 in test [1], in test [3] and in test [4] were 80 nM, 1.84 µM and 13.5 µM, respectively. Further, the results for the “Ratio IC50” value in test [2] and in test [5] were 168.1 and 7.31, respectively.
